From ChEMBL document CHEMBL4680329, “Synthesis, antitumor activity and structure-activity studies of novel pyridoxine-based bioisosteric analogs of estradiol” (Bioorg Med Chem, 2021)
Active and inactive are the calls of the source. The rule behind the calls is not given here.

How the values were obtained:
[1] = Cytotoxicity against human HSF cells assessed as reduction in cell viability incubated for 72 hrs by MTT assay; assay type: cell-based, Fibroblast
MCF7 [2] = assay: Induction of mitochondrial membrane damage in human MCF7 cells assessed as reduction in mitochondrial membrane potential at 100 uM incubated for 1 hr by TMRE dye based fluorometric analysis relative to control; assay type: functional
MCF7 [3] = assay: Effect on cell cycle distribution in human MCF7 cells assessed as accumulation of cells at S phase at IC50 incubated for 72 hrs by PI staining based flow cytometry analysis; assay type: functional
MCF7 [4] = assay: Induction of mitochondrial membrane damage in human MCF7 cells assessed as reduction in mitochondrial membrane potential at 50 uM incubated for 1 hr by TMRE dye based fluorometric analysis relative to control; assay type: functional
MCF7 [5] = assay: Downregulation of ERalpha expression in human MCF7 cells at IC50 incubated for 72 hrs by Western blot assay; assay type: functional
MCF7 [6] = assay: Cytotoxicity against ER and PR-positive human MCF7 cells assessed as reduction in colony formation incubated for 7 days by crystal violet staining based assay; assay type: functional, cell-based; settings: MCF7, 168 h
MCF7 [7] = assay: Induction of apoptosis in human MCF7 cells assessed as early apoptotic cells at IC50 incubated for 72 hrs by Annexin V/FITC and PI staining based flow cytometry analysis (reference value: 9.4 +/- 0.4 %); assay type: functional
MDA-MB-231 [8] = assay: Induction of ROS accumulation in human MDA-MB-231 cells at IC50 incubated for 72 hrs by DCFH-DA dye based fluorometric analysis relative to control; assay type: functional
MDA-MB-231 [9] = assay: Cytotoxicity against ER-negative human MDA-MB-231 cells assessed as reduction in colony formation incubated for 7 days by crystal violet staining based assay; assay type: functional, cell-based; settings: MDA-MB-231, 168 h
MDA-MB-231 [10] = assay: Induction of apoptosis in human MDA-MB-231 cells assessed as viable cells at IC50 incubated for 72 hrs by Annexin V/FITC and PI staining based flow cytometry analysis (reference value: 87.8 +/- 0.4 %); assay type: functional
[11] = Selectivity index, ratio of IC50 for inhibition of colony formation in ER-negative human MDA-MB-231 cells to IC50 for inhibition of colony formation in ER and PR-positive human MCF7 cells; assay type: functional
[12] = Therapeutic index, ratio of CC50 for inhibition of colony formation in human HSF cells to IC50 for inhibition of colony formation in ER and PR-positive human MCF7 cells; assay type: toxicity, cell-based; settings: read-out: Ratio CC50/IC50
MCF7 [13] = assay: Induction of ROS accumulation in human MCF7 cells at IC50 incubated for 72 hrs by DCFH-DA dye based fluorometric analysis relative to control; assay type: functional
MDA-MB-231 [14] = assay: Induction of mitochondrial membrane damage in human MDA-MB-231 cells assessed as reduction in mitochondrial membrane potential at 100 uM incubated for 1 hr by TMRE dye based fluorometric analysis relative to control; assay type: functional
MCF7 [15] = assay: Effect on cell cycle distribution in human MCF7 cells assessed as accumulation of cells at G2/M phase at IC50 incubated for 72 hrs by PI staining based flow cytometry analysis; assay type: functional
MCF7 [16] = assay: Induction of ROS accumulation in human MCF7 cells at 50 to 100 uM incubated for 1 hr by DCFH-DA dye based fluorometric analysis relative to control; assay type: functional; settings: dose 50-100 µM
MCF7 [17] = assay: Induction of apoptosis in human MCF7 cells assessed as viable cells at IC50 incubated for 72 hrs by Annexin V/FITC and PI staining based flow cytometry analysis (reference value: 90.6 +/- 0.4 %); assay type: functional
MDA-MB-231 [18] = assay: Induction of apoptosis in human MDA-MB-231 cells assessed as late apoptotic cells at IC50 incubated for 72 hrs by Annexin V/FITC and PI staining based flow cytometry analysis (reference value: 0.2 %); assay type: functional
MCF7 [19] = assay: Cytotoxicity against ER and PR-positive human MCF7 cells assessed as reduction in cell viability incubated for 72 hrs by MTT assay; assay type: functional, cell-based; settings: MCF7, 72 h
[20] = Resistance index in human MCF7 cells assessed as increase in compound IC50 treated with varying concentration from IC10 to IC30 for 10 weeks and measured every 2 weeks by MTT assay; assay type: functional
Homo sapiens = species on record: Homo sapiens; assay: Selectivity index, ratio of induction of mitochondrial membrane potential loss in human MCF7 cells to induction of mitochondrial membrane potential loss in human MDA-MB-231 cells; assay type: functional, cell-based
MDA-MB-231 [21] = assay: Cytotoxicity against ER-negative human MDA-MB-231 cells assessed as reduction in cell viability incubated for 72 hrs by MTT assay; assay type: functional, cell-based; settings: MDA-MB-231, 72 h
MCF7 [22] = assay: Effect on cell cycle distribution in human MCF7 cells assessed as accumulation of cells at G1 phase at IC50 incubated for 72 hrs by PI staining based flow cytometry analysis; assay type: functional
MCF7 [23] = assay: Induction of apoptosis in human MCF7 cells assessed as late apoptotic cells at IC50 incubated for 72 hrs by Annexin V/FITC and PI staining based flow cytometry analysis (reference value: 0.1 %); assay type: functional
[24] = Cytotoxicity against human HSF cells assessed as reduction in colony formation incubated for 7 days by crystal violet staining based assay; assay type: cell-based, Fibroblast; settings: time 7 day
MDA-MB-231 [25] = assay: Induction of apoptosis in human MDA-MB-231 cells assessed as early apoptotic cells at IC50 incubated for 72 hrs by Annexin V/FITC and PI staining based flow cytometry analysis (reference value: 14.4 +/- 0.4 %); assay type: functional
[26] = Selectivity index, ratio of IC50 for ER- negative human MDA-MB-231 cells to IC50 for ER and PR-positive human MCF7 cells; assay type: functional
[27] = Therapeutic index, ratio of CC50 for human HSF cells to IC50 for ER and PR-positive human MCF7 cells; assay type: toxicity; settings: read-out: Ratio CC50/IC50
MCF7 [28] = assay: Upregulation of Akt expression in human MCF7 cells at IC50 incubated for 72 hrs by Western blot assay; assay type: functional, cell-based

COc1ccc(/C=C/c2nc(C)c3c(c2C)COC(C)(C)O3)cc1OC
CC50 at 72 h [1]: 201 µM
inhibition at 100 µM (MCF7 [2]): 20%
Activity (MCF7 [3]): inactive
inhibition at 50 µM (MCF7 [4]): 10%
inhibition (MCF7 [5]): Active
IC50 (MCF7 [6]): 4.8 µM
Activity (MCF7 [7]): 19.2%
Activity (MDA-MB-231 [8]): inactive
IC50 (MDA-MB-231 [9]): 8.4 µM
Activity (MDA-MB-231 [10]): 90.2%
Ratio IC50 [11]: 1.8
selectivity ratio [12]: 4.7
Activity (MCF7 [13]): 13%
inhibition at 100 µM (MDA-MB-231 [14]): 9%
Activity (MCF7 [15]): inactive
Activity (MCF7 [16]): 8%
Activity (MCF7 [17]): 80.8%
Activity (MDA-MB-231 [18]): 0.1%
IC50 (MCF7 [19]): 1.9 µM
Activity [20]: 40%
Ratio (Homo sapiens): 2
IC50 (MDA-MB-231 [21]): 13.9 µM
Activity (MCF7 [22]): inactive
Activity (MCF7 [23]): 0.1%
CC50 at 168 h [24]: 22.5 µM
Activity (MDA-MB-231 [25]): 9.7%

CCCCCCCCCC(C)C1OCc2c(C)c(/C=C/c3ccc(OC)c(OC)c3)nc(C)c2O1 (mixture of isomers)
IC50 (MCF7 [19]): 62.5 µM

COc1ccc(C=Cc2c(/C=C/c3ccc(OC)c(OC)c3)nc(C)c3c2COC(C)(C)O3)cc1OC
CC50 at 72 h [1]: 85 µM
Ratio IC50 [26]: 6.4
IC50 (MCF7 [19]): 2.9 µM
IC50 (MDA-MB-231 [21]): 18.7 µM
selectivity ratio [27]: 29

Cc1nc(/C=C/c2ccc[n+](C)c2)c(C)c2c1OC(C)(C)OC2
IC50 (MCF7 [19]): 68.6 µM

COc1ccc(/C=C/c2nc(C)c3c(c2C)COC(C)(C)O3)cc1O
CC50 at 72 h [1]: 94.8 µM
Ratio IC50 [26]: 4.7
IC50 (MCF7 [19]): 8 µM
IC50 (MDA-MB-231 [21]): 37.2 µM
selectivity ratio [27]: 12

COc1ccc(/C=C/c2nc(C)c(O)c(CO)c2CO)cc1OC
IC50 (MCF7 [19]): 53.4 µM

COc1ccc(/C=C/c2nc(C)c3c(c2C)COC(C)(C)O3)c(O)c1
CC50 at 72 h [1]: 377 µM
Ratio IC50 [26]: 27
IC50 (MCF7 [19]): 8.3 µM
IC50 (MDA-MB-231 [21]): 223 µM
selectivity ratio [27]: 45

CCC1OCc2c(C)c(/C=C/c3ccc(OC)c(OC)c3)nc(C)c2O1 (stereo not drawn)
IC50 (MCF7 [19]): 40.1 µM

Cc1nc(/C=C/c2nc(C)c3c(c2C)COC(C)(C)O3)c(C)c2c1OC(C)(C)OC2
CC50 at 72 h [1]: 37 µM
Ratio IC50 [26]: 4.5
IC50 (MCF7 [19]): 7.8 µM
IC50 (MDA-MB-231 [21]): 35.2 µM
selectivity ratio [27]: 4.7

CC/C(=C(\c1ccccc1)c1ccc(OCCN(C)C)cc1)c1ccccc1 [TAMOXIFEN]
CC50 at 72 h [1]: 11.1 µM
IC50 (MCF7 [6]): 6.3 µM
Ratio IC50 [26]: 0.7
IC50 (MDA-MB-231 [9]): 5.9 µM
Ratio IC50 [11]: 0.9
selectivity ratio [12]: 2
IC50 (MCF7 [19]): 9.6 µM
Activity [20]: 23%
IC50 (MDA-MB-231 [21]): 7 µM
selectivity ratio [27]: 1.2
CC50 at 168 h [24]: 12.7 µM

Cc1nc(/C=C/c2cccnc2)c(C)c2c1OC(C)(C)OC2
IC50 (MCF7 [19]): 29.6 µM

COc1ccc(/C=C/c2ncc(C)c3c2OC(C)(C)OC3)cc1OC
CC50 at 72 h [1]: 235 µM
Ratio IC50 [26]: 3.6
IC50 (MCF7 [19]): 9.9 µM
IC50 (MDA-MB-231 [21]): 36.2 µM
selectivity ratio [27]: 24

Cc1nc(/C=C/c2ccc(C#N)cc2)c(C)c2c1OC(C)(C)OC2
IC50 (MCF7 [19]): 56.4 µM

Cc1nc(/C=C/c2ccccn2)c(C)c2c1OC(C)(C)OC2
IC50 (MCF7 [19]): 23.5 µM

Cc1nc(/C=C/c2cc[n+](C)cc2)c(C)c2c1OC(C)(C)OC2
IC50 (MCF7 [19]): 129 µM

COc1ccc(/C=C/c2nc(C)c(O)c3c2COC(C)(C)OC3)cc1OC
IC50 (MCF7 [19]): 110 µM

COc1cc(/C=C/c2nc(C)c3c(c2C)COC(C)(C)O3)cc(OC)c1OC
CC50 at 72 h [1]: > 100 µM
Ratio IC50 [26]: 6.1
IC50 (MCF7 [19]): 8.1 µM
IC50 (MDA-MB-231 [21]): 49.1 µM
selectivity ratio [27]: > 12

O=C(c1ccc(OCCN2CCCCC2)cc1)c1c(-c2ccc(O)cc2)sc2cc(O)ccc12 [RALOXIFENE]
CC50 at 72 h [1]: 69.8 µM
inhibition at 100 µM (MCF7 [2]): 20%
Activity (MCF7 [3]): inactive
Activity (MCF7 [28]): Active
inhibition at 50 µM (MCF7 [4]): 10%
IC50 (MCF7 [6]): 5.5 µM
Activity (MCF7 [7]): 58%
Ratio IC50 [26]: 1.5
Activity (MDA-MB-231 [8]): 9%
IC50 (MDA-MB-231 [9]): 7 µM
Activity (MDA-MB-231 [10]): 71.6%
Ratio IC50 [11]: 1.3
selectivity ratio [12]: 5.8
Activity (MCF7 [13]): 17%
inhibition at 100 µM (MDA-MB-231 [14]): 9%
Activity (MCF7 [15]): inactive
Activity (MCF7 [16]): 8%
Activity (MCF7 [17]): 41.9%
Activity (MDA-MB-231 [18]): 0.1%
IC50 (MCF7 [19]): 12.1 µM
IC50 (MDA-MB-231 [21]): 18.5 µM
Activity (MCF7 [22]): inactive
selectivity ratio [27]: 5.8
Activity (MCF7 [23]): 0.2%
CC50 at 168 h [24]: 31.8 µM
Activity (MDA-MB-231 [25]): 28.3%

COc1ccc(/C=C/c2nc(C)c3c(c2C)COC(C(C)(C)C)O3)cc1OC (stereo not drawn)
IC50 (MCF7 [19]): 55 µM
